This note sets out measurements from patent US20070049593A1 (priority 2004, published 2007).

The target of the assay is T1, HCV polymerase (Hepatitis C virus genotype 1b, UniProt P26663).
T1 construct: a region encoding NS5B (J Virol 1991 March, 65(3), 1105-13, 544 amino acids after deletion of 47 amino acids on the C-terminal); 6xHis (C); made in house; host or cells: Escherichia coli
In words: biochemical. Further details: species or system HCV BK strain. Summed up: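 His-tagged NS5B (BK strain, 47-aa C-terminal deletion, E. coli-expressed) at 0.5 μg/ml copied 5 μg/ml run-off RNA bearing the HCV 3′ UTR with 2 μM UTP plus [3H]UTP, 50 μM ATP/GTP, in pH 7.5 Tris with 5 mM MgCl2, 25 °C, 90 min. TCA-precipitated RNA was counted and IC50 calculated.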

Structures can show the parent of a compound that is named as a salt.

T1 sequence (P26663 2420-2963): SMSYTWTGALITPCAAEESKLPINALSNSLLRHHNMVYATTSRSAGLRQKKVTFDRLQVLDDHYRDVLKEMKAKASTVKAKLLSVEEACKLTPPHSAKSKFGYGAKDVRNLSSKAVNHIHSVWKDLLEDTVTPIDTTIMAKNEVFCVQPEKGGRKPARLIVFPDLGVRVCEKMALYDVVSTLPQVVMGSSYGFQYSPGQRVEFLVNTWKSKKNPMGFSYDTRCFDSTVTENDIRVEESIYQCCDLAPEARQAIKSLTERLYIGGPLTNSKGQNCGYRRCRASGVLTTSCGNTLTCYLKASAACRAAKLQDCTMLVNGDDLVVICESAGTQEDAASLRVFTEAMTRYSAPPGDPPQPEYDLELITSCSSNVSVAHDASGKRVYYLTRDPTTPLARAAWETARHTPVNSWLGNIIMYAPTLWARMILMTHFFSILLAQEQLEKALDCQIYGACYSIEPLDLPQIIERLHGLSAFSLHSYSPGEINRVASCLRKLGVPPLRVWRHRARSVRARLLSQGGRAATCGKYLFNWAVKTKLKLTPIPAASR

Broadly, the IC50 is the midpoint of a concentration-inhibition curve. `O=C(O)c1ccc2c(C3CCCCC3)c3n(c2c1)CCN(CCN1CCCC1)c1cc(Cl)ccc1-3` [Example 1-216, 3-chloro-13-cyclohexyl-5-[2-(pyrrolidin-1-yl)ethyl]-6,7-dihydro-5H-benzo[5,6][1,4]diazepino[7,1-a]indole-10-carboxylic acid dihydrochloride]: the IC50 is < 0.1 µM.

In the case of `O=C(O)c1ccc2c(C3CCCCC3)c3n(c2c1)CCN(CCN1CCCCCC1)c1cc(Cl)ccc1-3` [Example 1-217, 5-[2-(azepan-1-yl)ethyl]-3-chloro-13-cyclohexyl-6,7-dihydro-5H-benzo[5,6][1,4]diazepino[7,1-a]indole-10-carboxylic acid dihydrochloride], the IC50 was < 0.1 µM.

`Cc1ccc2c(c1)N(CCN1CCCCCC1)CCn1c-2c(C2CCCCC2)c2ccc(C(=O)O)cc21` [Example 1-218, 5-[2-(azepan-1-yl)ethyl]-13-cyclohexyl-3-methyl-6,7-dihydro-5H-benzo[5,6][1,4]diazepino[7,1-a]indole-10-carboxylic acid dihydrochloride]: the IC50 was < 0.1 µM.

Consider `O=C(O)c1ccc2c(C3CCCCC3)c3n(c2c1)CCN(CCC1CCCNC1)c1cc(Cl)ccc1-3` (centres unmarked) [Example 1-219, 3-chloro-13-cyclohexyl-5-[2-(piperidin-3-yl)ethyl]-6,7-dihydro-5H-benzo[5,6][1,4]diazepino[7,1-a]indole-10-carboxylic acid dihydrochloride], for which the IC50 is < 0.1 µM.

Turning to `CC1COCCN1CCN1CCn2c(c(C3CCCCC3)c3ccc(C(=O)O)cc32)-c2ccccc21` (centres unmarked) [Example 1-220, 13-cyclohexyl-5-[2-(3-methylmorpholin-4-yl)ethyl]-6,7-dihydro-5H-benzo[5,6][1,4]diazepino[7,1-a]indole-10-carboxylic acid dihydrochloride], the IC50 is < 0.1 µM.

As to `CN1CCCC(CCN2CCn3c(c(C4CCCCC4)c4ccc(C(=O)O)cc43)-c3ccc(Cl)cc32)C1` (centres unmarked) [Example 1-221, 3-chloro-13-cyclohexyl-5-[2-(1-methylpiperidin-3-yl)ethyl]-6,7-dihydro-5H-benzo[5,6][1,4]diazepino[7,1-a]indole-10-carboxylic acid dihydrochloride], the IC50 is < 0.1 µM.

For `CN(C)CCN(C)C(=O)CN1CCn2c(c(C3CCCCC3)c3ccc(C(=O)O)cc32)-c2ccccc21` [Example 1-222, 13-cyclohexyl-5-{[N-(2-dimethylaminoethyl)-N-methylcarbamoyl]methyl}-6,7-dihydro-5H-benzo[5,6][1,4]diazepino[7,1-a]indole-10-carboxylic acid dihydrochloride], the IC50 was < 0.1 µM.

For `CN(C)CCN(C)CCN1CCn2c(c(C3CCCCC3)c3ccc(C(=O)O)cc32)-c2ccccc21` [Example 1-223, 13-cyclohexyl-5-{2-[N-(2-dimethylaminoethyl)-N-methylamino]ethyl}-6,7-dihydro-5H-benzo[5,6][1,4]diazepino[7,1-a]indole-10-carboxylic acid trihydrochloride], the half-maximal inhibitory concentration (IC50) was < 0.1 µM.

As to `CCS(=O)(=O)N1CCN(CCN2CCn3c(c(C4CCCCC4)c4ccc(C(=O)O)cc43)-c3ccccc32)CC1` [Example 1-224, 13-cyclohexyl-5-[2-(4-ethanesulfonylpiperazin-1-yl)ethyl]-6,7-dihydro-5H-benzo[5,6][1,4]diazepino[7,1-a]indole-10-carboxylic acid dihydrochloride], the IC50 was < 0.1 µM.

In the case of `CCC(=O)N1CCN(CCN2CCn3c(c(C4CCCCC4)c4ccc(C(=O)O)cc43)-c3ccccc32)CC1` [Example 1-225, 13-cyclohexyl-5-[2-(4-propionylpiperazin-1-yl)ethyl]-6,7-dihydro-5H-benzo[5,6][1,4]diazepino[7,1-a]indole-10-carboxylic acid dihydrochloride], the IC50 is < 0.1 µM.

With `CC(C)OC(=O)N1CCN(CCN2CCn3c(c(C4CCCCC4)c4ccc(C(=O)O)cc43)-c3ccccc32)CC1` [Example 1-226, 13-cyclohexyl-5-[2-(4-isopropoxycarbonylpiperazin-1-yl)ethyl]-6,7-dihydro-5H-benzo[5,6][1,4]diazepino[7,1-a]indole-10-carboxylic acid dihydrochloride], the IC50 was < 0.1 µM.

Consider `CC(C)Oc1ccc2c(c1)N(CCN1CCCCC1)CCn1c-2c(C2CCCCC2)c2ccc(C(=O)O)cc21` [Example 1-227, 13-cyclohexyl-3-isopropoxy-5-[2-(piperidin-1-yl)ethyl]-6,7-dihydro-5H-benzo[5,6][1,4]diazepino[7,1-a]indole-10-carboxylic acid dihydrochloride], for which the IC50 is < 0.1 µM.

As to `CN(C)CCN1CCn2c(c(C3CCCCC3)c3ccc(C(=O)O)cc32)-c2ccc(OCc3ccccc3)cc21` [Example 1-228, 3-benzyloxy-13-cyclohexyl-5-(2-dimethylaminoethyl)-6,7-dihydro-5H-benzo[5,6][1,4]diazepino[7,1-a]indole-10-carboxylic acid dihydrochloride], the half-inhibitory concentration (IC50) is < 0.1 µM.

Regarding `CC(C)N1CCCC(CCN2CCn3c(c(C4CCCCC4)c4ccc(C(=O)O)cc43)-c3ccc(Cl)cc32)C1` (centres unmarked) [Example 1-229, 3-chloro-13-cyclohexyl-5-[2-(1-isopropylpiperidin-3-yl)ethyl]-6,7-dihydro-5H-benzo[5,6][1,4]diazepino[7,1-a]indole-10-carboxylic acid dihydrochloride], the IC50 was < 0.1 µM.

Consider `CCCN1CCCC(CCN2CCn3c(c(C4CCCCC4)c4ccc(C(=O)O)cc43)-c3ccc(Cl)cc32)C1` (centres unmarked) [Example 1-230, 3-chloro-13-cyclohexyl-5-[2-(1-propylpiperidin-3-yl)ethyl]-6,7-dihydro-5H-benzo[5,6][1,4]diazepino[7,1-a]indole-10-carboxylic acid dihydrochloride], for which the IC50 was < 0.1 µM.

For the molecule `CN(CCN1CCn2c(c(C3CCCCC3)c3ccc(C(=O)O)cc32)-c2ccccc21)C1CCCCC1` [Example 1-231, 13-cyclohexyl-5-[2-(N-cyclohexyl-N-methylamino)ethyl]-6,7-dihydro-5H-benzo[5,6][1,4]diazepino[7,1-a]indole-10-carboxylic acid], the IC50 is < 0.1 µM.

Take `CS(=O)(=O)N1CCCN(CCN2CCn3c(c(C4CCCCC4)c4ccc(C(=O)O)cc43)-c3ccccc32)CC1` [Example 1-232, 13-cyclohexyl-5-[2-(4-methanesulfonyl-1,4-diazepan-1-yl)ethyl]-6,7-dihydro-5H-benzo[5,6][1,4]diazepino[7,1-a]indole-10-carboxylic acid dihydrochloride]: the half-maximal inhibitory concentration (IC50) is < 0.1 µM.

Consider `COC(=O)N1CCCN(CCN2CCn3c(c(C4CCCCC4)c4ccc(C(=O)O)cc43)-c3ccccc32)CC1` [Example 1-233, 13-cyclohexyl-5-[2-(4-methoxycarbonyl-1,4-diazepan-1-yl)ethyl]-6,7-dihydro-5H-benzo[5,6][1,4]diazepino[7,1-a]indole-10-carboxylic acid dihydrochloride], for which the IC50 is < 0.1 µM.

Regarding `O=C(O)c1ccc2c(C3CCCCC3)c3n(c2c1)CCN(CCN1CCCCCC1)c1cc(F)ccc1-3` [Example 1-234, 5-[2-(azepan-1-yl)ethyl]-13-cyclohexyl-3-fluoro-6,7-dihydro-5H-benzo[5,6][1,4]diazepino[7,1-a]indole-10-carboxylic acid dihydrochloride], the IC50 was < 0.1 µM.

In the case of `O=C(O)c1ccc2c(C3CCCCC3)c3n(c2c1)CC(=O)N(CCN1CCCCC1)c1ccccc1-3` [Example 1-235, 13-cyclohexyl-6-oxo-5-[2-(piperidin-1-yl)ethyl]-6,7-dihydro-5H-benzo[5,6][1,4]diazepino[7,1-a]indole-10-carboxylic acid monohydrochloride], the IC50 was < 0.1 µM.

In the case of `COC(=O)N(C)CCN(C)CCN1CCn2c(c(C3CCCCC3)c3ccc(C(=O)O)cc32)-c2ccccc21` [Example 1-236, 13-cyclohexyl-5-(2-{N-[2-(N-methoxycarbonyl-N-methylamino)ethyl]-N-methylamino}ethyl)-6,7-dihydro-5H-benzo[5,6][1,4]diazepino[7,1-a]indole-10-carboxylic acid dihydrochloride], the IC50 was < 0.1 µM.

Regarding `CC1CCN(CCN2CCn3c(c(C4CCCCC4)c4ccc(C(=O)O)cc43)-c3ccccc32)C1` (centres unmarked) [Example 1-237, 13-cyclohexyl-5-[2-(3-methylpyrrolidin-1-yl)ethyl]-6,7-dihydro-5H-benzo[5,6][1,4]diazepino[7,1-a]indole-10-carboxylic acid dihydrochloride], the IC50 is < 0.1 µM.

For the molecule `COC1CCN(CCN2CCn3c(c(C4CCCCC4)c4ccc(C(=O)O)cc43)-c3ccccc32)C1` (centres unmarked) [Example 1-238, 13-cyclohexyl-5-[2-(3-methoxypyrrolidin-1-yl)ethyl]-6,7-dihydro-5H-benzo[5,6][1,4]diazepino[7,1-a]indole-10-carboxylic acid dihydrochloride], the IC50 was < 0.1 µM.

As for `CCN1CCCN(C(=O)CN2CCn3c(c(C4CCCCC4)c4ccc(C(=O)O)cc43)-c3ccccc32)CC1` [Example 1-239, 13-cyclohexyl-5-[2-(4-ethyl-1,4-diazepan-1-yl)-2-oxoethyl]-6,7-dihydro-5H-benzo[5,6][1,4]diazepino[7,1-a]indole-10-carboxylic acid dihydrochloride], the IC50 was < 0.1 µM.

With `CC(C)N1CCC(CCN2CCn3c(c(C4CCCCC4)c4ccc(C(=O)O)cc43)-c3ccc(Cl)cc32)CC1` [Example 1-240, 3-chloro-13-cyclohexyl-5-[2-(1-isopropylpiperidin-4-yl)ethyl]-6,7-dihydro-5H-benzo[5,6][1,4]diazepino[7,1-a]indole-10-carboxylic acid dihydrochloride], the IC50 was < 0.1 µM.

Regarding `Cc1cccc2c1-c1c(C3CCCCC3)c3ccc(C(=O)O)cc3n1CCN2CCN1CCCCC1` [Example 1-241, 13-cyclohexyl-1-methyl-5-[2-(piperidin-1-yl)ethyl]-6,7-dihydro-5H-benzo[5,6][1,4]diazepino[7,1-a]indole-10-carboxylic acid dihydrochloride], the IC50 was < 0.1 µM.
